Results on eight compounds are retold here after ChEMBL document CHEMBL1132341, “Synthesis and characterization of fluorescent ligands for the norepinephrine transporter: potential neuroblastoma imaging agents” (J Med Chem, 1999).

In general, IC50 refers to the concentration at which inhibition is half-maximal. Lower therefore signals inhibition by little substance.

For this experiment, the system named is SK-N-SH. The experiment can be described thus: Inhibition of [3H]NE uptake into human SK-N-SH-SY5Y Neuroblastoma cells. In kind it is functional, cell-based.
`CCOC(=O)[C@@H]1[C@H](O/C(S)=N/c2ccc(/N=N/c3ccc(N(C)C)cc3)cc2)C[C@H]2CC[C@@H]1N2C`: 1320 nM corresponded to half-maximal inhibition (IC50).
Regarding `N=C(N)NCc1ccc(/C=C/c2ccccc2)cc1`, the IC50 turned out to be 120 nM.
As for `N=C(N)NCCN1c2ccccc2C=Cc2ccccc21`, the figure is 30 nM; as for `CNCCC(NS(=O)(=O)c1cccc2c(N(C)C)cccc12)c1ccccc1` (stereo not drawn), 370 nM.
The figure for `CNCCC(Nc1ccc([N+](=O)[O-])c2nonc12)c1ccccc1` (stereo not drawn) is 850 nM; for `CCOC(=O)[C@@H]1[C@H](OS(=O)(=O)c2cccc3c(N(C)C)cccc23)C[C@H]2CC[C@@H]1N2C` it is 60 nM.
With `CNCCC(/N=C(\S)Nc1ccc(/N=N/c2ccc(N(C)C)cc2)cc1)c1ccccc1` (stereo not drawn), the IC50 was determined as 1020 nM.
The figure for `N=C(N)NCc1cccc2ccccc12` is 60 nM.
